# Read-outs that look alike come from different tables or passages of the source.
# Assays:
# BSA = target: T1, BSA (Bos taurus, UniProt P02769); design: Intact protein LC/MS covalent labelling, fragments in pools of five, 200 uM each, 4 °C; details: 24 h, 4 °C, pool of five; 200 µM; covalent
# T1 construct: gene ALB
# NUDT7 = target: T2, NUDT7 (Homo sapiens, UniProt P0C024); design: Intact protein LC/MS covalent labelling, fragments in pools of five, 200 uM each, 4 °C; details: 24 h, 4 °C, pool of five; 200 µM; covalent
# T2 construct: residues 14-235, E. coli, pNIC28-Bsa4, N-terminal His6 tag removed by TEV, construct 26672 Da
# T2 sequence (P0C024 14-235): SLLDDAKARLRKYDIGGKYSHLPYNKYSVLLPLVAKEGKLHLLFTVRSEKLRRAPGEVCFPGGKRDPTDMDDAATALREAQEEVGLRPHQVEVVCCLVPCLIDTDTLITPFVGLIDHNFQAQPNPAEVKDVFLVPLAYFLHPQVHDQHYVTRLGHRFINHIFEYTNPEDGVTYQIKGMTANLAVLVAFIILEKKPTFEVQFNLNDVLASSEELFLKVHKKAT
# OTUB2 (OTUB2A) = target: T3, OTUB2 (OTUB2A) (Homo sapiens, UniProt Q96DC9); design: Intact protein LC/MS covalent labelling, fragments in pools of five, 200 uM each, 4 °C; details: 24 h, 4 °C, pool of five; 200 µM; covalent
# T3 construct: full length residues 1-234, E. coli BL21(DE3)-R3, His tag removed by TEV, construct 27312 Da
# T3 sequence (Q96DC9 1-234): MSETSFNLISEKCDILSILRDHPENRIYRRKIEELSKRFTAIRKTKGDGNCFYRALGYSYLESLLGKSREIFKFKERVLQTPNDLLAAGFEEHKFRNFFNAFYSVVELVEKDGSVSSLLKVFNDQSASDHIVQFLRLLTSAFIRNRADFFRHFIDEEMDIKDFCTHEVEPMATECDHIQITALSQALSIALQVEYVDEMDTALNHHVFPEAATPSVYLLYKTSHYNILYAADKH
# PCAF = target: T4, PCAF (Homo sapiens, UniProt Q92831); design: Intact protein LC/MS covalent labelling, fragments in pools of five, 200 uM each, 4 °C; details: 24 h, 4 °C, pool of five; 200 µM; covalent
# T4 construct: gene KAT2B
# T4 sequence (Q92831 whole entry, the tested form may be a part): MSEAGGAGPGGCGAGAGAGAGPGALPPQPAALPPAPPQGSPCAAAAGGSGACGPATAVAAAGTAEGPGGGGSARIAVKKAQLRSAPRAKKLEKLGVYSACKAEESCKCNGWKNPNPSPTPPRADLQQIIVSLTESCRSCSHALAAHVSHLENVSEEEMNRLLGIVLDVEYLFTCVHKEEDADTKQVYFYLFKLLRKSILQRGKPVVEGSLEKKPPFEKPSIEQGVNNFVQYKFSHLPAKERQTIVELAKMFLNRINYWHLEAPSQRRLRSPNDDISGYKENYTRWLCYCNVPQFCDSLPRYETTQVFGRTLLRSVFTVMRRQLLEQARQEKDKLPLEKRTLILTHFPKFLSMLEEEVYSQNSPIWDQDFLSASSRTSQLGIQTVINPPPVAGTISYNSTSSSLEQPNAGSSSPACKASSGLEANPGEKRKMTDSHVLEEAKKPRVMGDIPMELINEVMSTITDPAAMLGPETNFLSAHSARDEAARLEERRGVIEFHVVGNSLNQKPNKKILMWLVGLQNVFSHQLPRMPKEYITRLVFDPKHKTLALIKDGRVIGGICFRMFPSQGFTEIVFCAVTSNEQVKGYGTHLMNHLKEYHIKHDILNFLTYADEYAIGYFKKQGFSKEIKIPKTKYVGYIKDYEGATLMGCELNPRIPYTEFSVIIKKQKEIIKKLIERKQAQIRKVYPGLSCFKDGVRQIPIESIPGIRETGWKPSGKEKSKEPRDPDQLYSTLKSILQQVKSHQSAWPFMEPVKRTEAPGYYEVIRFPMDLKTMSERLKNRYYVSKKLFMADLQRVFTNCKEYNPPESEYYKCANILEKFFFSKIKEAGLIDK
# in vitro [1] = experiment: in vitro; design: species or system CCD841, HEK293; details: human, hb2 cells, read-out: HB-2 Cells Viability (%)
# in vitro [2] = experiment: in vitro; design: species or system HB2, HEK293; details: human, ccd841 cells
# in vitro [3] = experiment: in vitro; design: species or system HB2, CCD841; details: human, hek293 cells
# T1 sequence (P02769 whole entry, the tested form may be a part): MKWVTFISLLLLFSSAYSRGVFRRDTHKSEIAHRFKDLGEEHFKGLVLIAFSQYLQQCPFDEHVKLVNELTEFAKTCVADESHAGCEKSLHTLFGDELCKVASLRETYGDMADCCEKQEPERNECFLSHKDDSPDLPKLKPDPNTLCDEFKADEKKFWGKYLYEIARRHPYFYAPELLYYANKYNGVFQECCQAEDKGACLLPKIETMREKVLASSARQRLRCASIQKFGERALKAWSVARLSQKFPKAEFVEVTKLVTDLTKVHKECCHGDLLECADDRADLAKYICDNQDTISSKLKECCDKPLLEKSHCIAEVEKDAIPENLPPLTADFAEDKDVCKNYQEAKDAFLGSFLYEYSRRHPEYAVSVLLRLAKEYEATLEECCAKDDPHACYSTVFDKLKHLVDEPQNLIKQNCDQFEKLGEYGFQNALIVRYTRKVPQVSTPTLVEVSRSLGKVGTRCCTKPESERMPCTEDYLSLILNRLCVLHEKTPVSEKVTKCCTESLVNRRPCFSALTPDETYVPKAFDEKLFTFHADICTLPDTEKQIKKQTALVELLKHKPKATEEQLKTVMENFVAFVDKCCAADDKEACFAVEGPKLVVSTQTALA
SMILES,BSA (BSA),NUDT7 (NUDT7),OTUB2 (OTUB2 (OTUB2A)),PCAF (PCAF),"viability at 48 h, 10 µM (in vitro [1])","viability at 48 h, 10 µM (in vitro [2])","viability at 48 h, 10 µM (in vitro [3])"
O=C(CCl)NNC(=O)C1COc2ccccc2O1 (stereo not drawn) [PCM-0102384],0,0,0.27,0,86.6%,70.3%,90.7%
C=CC(=O)Nc1ccc(F)c(F)c1 [PCM-0102385],0,0,0,0,104%,112%,66.1%
Cl.O=C(CCl)N1CCN(Cc2ccccc2F)CC1 [PCM-0102387],0,0,0.32,0,24%,67.2%,35.1%
O=C(CCl)Nc1cc2[nH]c(=O)[nH]c2cc1Br [PCM-0102388],0,0,0.56,0,11.4%,38.6%,1.2%
O=C(CCl)NCC(=O)N1CCCC1 [PCM-0102391],0,0,0,0,106%,101%,116%
O=C(CCl)Nc1ccc([N+](=O)[O-])cc1Cl [PCM-0102392],0,0.16,0.21,0,43.5%,53.9%,43.8%
O=C(CCl)N1CCCC1c1cccs1 (stereo not drawn) [PCM-0102393],0,0.36,0,0,7.5%,39%,2.5%
Cc1cc(C)cc(NC(=O)CCl)c1 [PCM-0102394],0,0,0.22,0,31.4%,69.9%,22.3%
N#Cc1ccccc1S(=O)(=O)N1CCN(C(=O)CCl)CC1 [PCM-0102395],0,0.28,0,0,11.2%,62.6%,9.7%
O=C(CCl)Nc1cccc2ccccc12 [PCM-0102396],0,0.12,0.54,0,16.3%,55.8%,2.4%
Cc1ccc(C)c(NC(=O)CCl)c1 [PCM-0102398],0,0,0,0,59.4%,62.3%,51.5%
Cc1ccc(CN(C)C(=O)CCl)o1 [PCM-0102399],0,0.05,0,0,25.7%,56.5%,31.8%
CC(NC(=O)CCl)C12CC3CC(CC(C3)C1)C2 (stereo not drawn) [PCM-0102402],0,0.07,0.24,0,67.3%,73.3%,55.2%
Cl.O=C(CCl)N1CCN(C2CCS(=O)(=O)C2)CC1 (stereo not drawn) [PCM-0102405],0,0,0,0,107%,87.8%,90.2%
O=C(CCl)Nc1ccc([N+](=O)[O-])cc1C(F)(F)F [PCM-0102406],0,0,0,0,81.5%,83.1%,71.9%
O=C(CCl)Nc1ccc2c(c1)OCCCO2 [PCM-0102409],0,0.1,0.23,0,29.6%,51.7%,6.9%
COc1cccc(NC(=O)CCl)c1 [PCM-0102410],0.21,0,0,0,34.1%,63.5%,7.5%

# Continued, in another order:
BSA (BSA),NUDT7 (NUDT7),OTUB2 (OTUB2 (OTUB2A)),PCAF (PCAF),SMILES,"viability at 48 h, 10 µM (in vitro [1])","viability at 48 h, 10 µM (in vitro [2])","viability at 48 h, 10 µM (in vitro [3])"
0,0,0,0,O=C(CCl)NC(=O)NC1CC1 [PCM-0102411],96.7%,84.9%,109%
0,0.16,0.07,0,O=C(CCl)Nc1cc(Cl)ccc1C(=O)O [PCM-0102412],99.3%,100%,89.4%
0,0,0,0,C=CC(=O)Nc1cccc(F)c1C [PCM-0102413],100%,86%,86.8%
0,0.1,0.16,0,O=C(CCl)N1CCSc2ccccc21 [PCM-0102415],30.2%,60.6%,22.4%
0,0,0,0,CS(=O)(=O)N1CCN(C(=O)CCl)CC1 [PCM-0102417],89.4%,78.8%,70.1%
0,0.16,0,0,C=CC(=O)N1CCN(C(=O)OC(C)(C)C)CC1 [PCM-0102419],100%,104%,90.3%
0,0.47,0,0,CC1CCc2c(sc(NC(=O)CCl)c2C#N)C1 (stereo not drawn) [PCM-0102420],50.9%,81.6%,43.4%
0,0,0,0,O=C(CCl)NC(=O)c1ccccc1Cl [PCM-0102422],99.7%,110%,93%
0,0,0.09,0,C=CC(=O)N1CCC(n2cc(C)cn2)CC1 [PCM-0102423],104%,108%,92.5%
0,0.28,0,0,O=C(CCl)N1CCCC(c2nc3ccccc3s2)C1 (stereo not drawn) [PCM-0102425],4.1%,3.5%,9.4%
0,0,0.6,0,O=C(CCl)NNC(=O)c1cccs1 [PCM-0102426],86%,88.7%,82.8%
0,0,0,0,CC1(c2ccccc2)NC(=O)N(NC(=O)CCl)C1=O (stereo not drawn) [PCM-0102428],91.2%,81.4%,103%
0,0,0.31,0,O=C(CCl)NNC(=O)c1ccc(F)cc1 [PCM-0102430],94.9%,93.2%,93.4%
0,0.2,0.26,0.44,C=CC(=O)N1CCCC(Cc2nccn2C)C1 (stereo not drawn) [PCM-0102433],94.7%,97.8%,92.9%
0,0,0,0,CCC1CN(C(=O)CCl)CCO1 (stereo not drawn) [PCM-0102436],85.5%,79.3%,71.4%
0,0,0,0,C=CC(=O)N1CCC(n2nnc3c2CCCC3)CC1 [PCM-0102437],106%,92.9%,91.5%

# From PMC6556873, “Rapid Covalent-Probe Discovery by Electrophile-Fragment Screening” (Journal of the American Chemical Society, 2019)
